The values below come from patent US10328094B2, “Compound from the avermectin family for treating and/or preventing folliculitis” (GALDERMA SA, priority 2015, dated 2019).

“Also recorded” adds a separate entry of the source.

Test [1] concerns primary human keratinocytes. Nature of the test: Gene expression by quantitative PCR in primary human keratinocytes treated with erlotinib and/or ivermectin +/- TNF-α/IL-1β. Format: cell-based. The method, then:
A study was carried out on primary human keratinocytes in vitro, in order to determine the effect of ivermectin on the regulation of genes of which the expression has been identified as being modulated by EGFR inhibitors. Said genes identified are the pro-inflammatory chemokines CCL2, CCL5, CCL27 and CXCL14 and the cytokines of the IL-1β family, but also the genes of antimicrobial peptides RNase7, HBD3 and LL37.
(§1) To do this, primary human keratinocytes were cultured with various concentrations of EGFR inhibitor (in this case erlotinib) each with +/− TNF-α/IL-1β, various concentrations of ivermectin alone each with +/− TNF-α/IL-1β various concentrations of erlotinib and of ivermectin each with +/− TNF-α/IL-1β. The addition of the pro-inflammatory cytokines TNFα and IL1β makes it possible to mimic the skin inflammation.
(§2) The various concentrations used were the following: • Erlotinib: 0-0.1 μM-1 μM-10 μM (each with +/− TNF-α/IL-1β) • Ivermectin: 0-0.1 μM-1 μM-10 μM (each with +/− TNF-α/IL-1β) • Co-stimulation: • Erlotinib (0.1 μM)+Ivermectin (1 μM) (+/− TNF-α/IL-1β) • Erlotinib (0.1 μM)+Ivermectin (5 μM) (+/− TNF-α/IL-1β) • Erlotinib (1 μM)+Ivermectin (1 μM)+/− TNF-α/IL-1β) • Erlotinib (1 μM)+Ivermectin (5 μM) (+/− TNF-α/IL-1β)
(§3) The expression of the CXCL14, CCL5 (chemokines), RNase 7, HBD3 and LL37 (antimicrobial peptides) genes was analyzed by quantitative PCR. The protein concentration of the chemokines CXCL14 and CCL5 was quantified using an ELISA assay.

Test [2] deals with primary human keratinocytes. Nature of the test: CXCL14 and CCL5 protein concentration by ELISA assay in primary human keratinocytes. Type of test: cell-based. The method, then: Another objective of the present study was to identify the effect of ivermectin on the CXCL14 and CCL5 protein level of
as §1, §2, §3
(An ELISA detects its analyte on a solid surface through an enzyme-linked reagent.)

[3] abbreviates: erlotinib without ivermectin, listed as erlitonib.
Where [4] appears, read: erlotinib and TNFα/IL1β, without ivermectin.
Where [5] appears, read: ivermectin in combination with erlotinib, +/- TNFα/IL1β.

Turning to `C#Cc1cccc(Nc2ncnc3cc(OCCOC)c(OCCOC)cc23)c1` [erlotinib], in test [1] (erlotinib without ivermectin), the “expression of CCL5 (gene, quantitative PCR)” value (“expression of CCL5” for short) is “induction”; the “expression of CXCL14 (gene, quantitative PCR)” value (“expression of CXCL14” for short) was “induction”; the “expression of HBD3 (gene, quantitative PCR)” value was “decreased”; the “expression of RNase 7 (gene, quantitative PCR)” value is listed as “greatly decreased”. Besides, in test [1] (setting [3]), the “expression of CCL5” value is “overexpression” and the “expression of CXCL14” value is “overexpression”. Also, in test [2] (setting [4]), the “CCL5 protein concentration (ELISA)” value is reported as “increase” and the “CXCL14 protein concentration (ELISA)” value is on record as “increase”.
On to `CC[C@H](C)[C@H]1O[C@]2(CC[C@@H]1C)C[C@@H]1C[C@@H](C/C=C(\C)[C@@H](O[C@H]3C[C@H](OC)[C@@H](O[C@H]4C[C@H](OC)[C@@H](O)[C@H](C)O4)[C@H](C)O3)[C@@H](C)/C=C/C=C3\CO[C@@H]4[C@H](O)C(C)=C[C@@H](C(=O)O1)[C@]34O)O2` [ivermectin], for which, in test [1] (setting [5]), the “expression of CCL5” value was “significant modification of the induction; also recorded: reduce the overexpression”; the “expression of CXCL14” value was “significant modification of the induction; also recorded: reduce the overexpression”; the “expression of HBD3 (gene, quantitative PCR)” value is “induce the expression”. Further, in test [1] (ivermectin in combination with erlotinib, various concentrations), the “expression of RNase 7 (gene, quantitative PCR)” value was “re-establish the expression of RNase 7 greatly decreased in the presence of erlotinib but also to induce a strong expression thereof”. The “CXCL14 protein level (ELISA)” value in test [2] (ivermectin in combination with erlotinib and TNFα/IL1β) is listed as “decrease the protein level”.
